Tests used:
PC12 cells [1] = experiment: Differentiation of PC12 cells into neurons with synapse growth; type: cell-based; details: 72 h, **P<0.01 vs control group, FIG. 11
Protocol: PC12 cells were seeded on 6-well plate and inoculated in a 5% CO2 incubator at 37° C. for 24 hours. Control group was unchanged; NGF control group: serum-free F-12K+50 ng/mL NGF; drug treatment group: serum-free F-12K with different concentrations of T-006. After 72 hours of incubation, picture was taken under an inverted microscope with 5 shoots at random for each hole. If the cell synapse length is more than 2 times the cell, it can be regarded as cell differentiation and synapse formation. […] Compared with the control group, **P<0.01.

Cortical neurons [2] = experiment: Protective effect on t-BHP-induced cortical neuronal injury (MTT); type: cell-based, SD fetal rat; details: FIG. 6
Protocol: Cortical neurons of E16-18 days SD fetal rat were seeded on a 96-well plate and inoculated in a 5% CO2 incubator at 37° C. for 8 days. […] The neurons were set to incubator to cultivate for 24 hours, and then MTT was added to each well. Four hours later, the absorbance value was measured at 570 nm using a microplate reader. […] Compared with the t-BHP group, ****P<0.0001.

PC12 cells [3] = experiment: t-BHP-induced mitochondrial membrane potential disorder in PC12 cells (JC-1, flow cytometry); type: cell-based; details: pre-incubated 2 h, t-BHP 100 μM, FIG. 13C
Protocol: (§1) PC12 cells were seeded on a 96-well plate and inoculated in a 5% CO2 incubator at 37° C. for 24 hours, and then T-006 and TMP (100 M) in different concentration gradients were added to be pre-incubated for 2 hours. Then the medium was aspirated, and 100 μl t-BHP (100 μM) was added to each well except the wells of the control group, and the cells were cultured in an incubator for 24 hours. Hoechst working fluid was added and the number of PC12 cells was observed and counted under fluorescence microscope. […] (B) PC12 cell apoptosis statistics. […] PC12 cells were seeded on a 96-well plate and inoculated in a 5% CO2 incubator at 37° C. for 24 hours, and then T-006 and TMP (100 M) in different concentration gradients were added to be pre-incubated for 2 hours. 2 hours later, 100 μl t-BHP (100 μM) was added to each well except the control group for induction. After completion of the induction, JC-1 working solution was added to each well and mitochondrial membrane potential was monitored and analyzed using flow cytometry. Compared with the control group, ### p<0.001; compared with t-BHP, *p<0.05, **p<0.01 and ***p<0.001.

PC12 cells [4] = experiment: t-BHP-induced ROS and RNS in PC12 cells (DCF-DA, HFP, DAF-FM, DHR123 probes); type: cell-based; details: pre-incubated 2 h, t-BHP 100 μM 6 h; total ROS, hydroxyl radicals, nitric oxide radicals, peroxynitrite; FIG. 14A-14D
Protocol: PC12 cells were seeded on 6-well plate and inoculated in a 5% CO2 incubator at 37° C. for 24 hours, and then T-006 and TMP (100 M) in different concentration gradients were added to be pre-incubated for 2 hours. Then the medium was aspirated, and 100 μl t-BHP (100 μM) was added to each well except the wells of the control group, and the cells were cultured in an incubator for 6 hours. Consequently, DCF-DA probes, HFP probes, DAF-FM probes and DHR123 probes were added respectively to determine the total ROS, hydroxyl radicals, nitric oxide radicals and peroxynitrite. (A) DCF-DA probe for determining intracellular total ROS. (B) HFP probe for determining intracellular hydroxyl radicals. (C) DAF-FM probe for determining nitric oxide free radicals. (D) DHR123 probe for determining intracellular peroxynitrite. Compared with the control group, ### p<0.001; compared with t-BHP, *p<0.05, **p<0.01 and ***p<0.001.

PC12 cells [5] = experiment: Protective effect on IAA-induced PC12 cell injury (MTT); type: cell-based; details: FIG. 3
Protocol: PC12 cells were seeded on a 96-well plate and inoculated in a 5% CO2 incubator at 37° C. for 24 hours. Then 100 μl of IAA (50 μM) was added for induction for 2 hours. Two hours later, the medium was aspirated, and each of the compounds (T-006, TMP, Edaravone) was added and the cells were cultured for 24 hours. After 24 hours of incubation, MTT was added to each well. Four hours later, the absorbance was measured at 570 nm using a microplate reader. […] Compared with the IAA group, ****P<0.0001.

PC12 cells [6] = experiment: t-BHP-induced apoptosis in PC12 cells (Hoechst staining); type: cell-based; details: pre-incubated 2 h, t-BHP 100 μM 24 h, FIG. 13A, 13B
Protocol: as §1

[7] = tested on: MEF2 transcription activity in PC12 cells; experiment: MEF2 luciferase reporter assay in stably transfected PC12 cells; type: cell-based; details: 24 h incubation, **P<0.01, FIG. 9
Protocol: The PC12 was transfected by cloning the MEF2 reporter gene pGreenFire1TM-MEF2-EF1 lentivector. Stable transfected PC12 cells, as cultured in a conventional manner, were seeded on a 96-well plate with T-006 added in different concentrations, were incubated for 24 h. The activity was measured by the Luciferase reporter assay kit (Promega, USA). […] Compared with the IAA group, **P<0.01.

PC12 cells [8] = experiment: Protective effect on t-BHP-induced PC12 cell injury (MTT); type: cell-based; details: FIG. 4
Protocol: PC12 cells were seeded on a 96-well plate and inoculated in a 5% CO2 incubator at 37° C., for 24 hours. Then each compound (T-006, TMP, Edaravone) was added in different concentration gradients to pre-incubated for 2 hours. Two hours later, the medium was aspirated, and 100 μl t-BHP (100 μM) was added to each well except those of the control group, then the cells were cultured in an incubator for 24 hours. Four hours later, MTT was added into each of the wells, and the absorbance was measured at 570 nm using a microplate reader. […] Compared with t-BHP group, ****P<0.0001.

[9] = tested on: Primary cerebellar granule cells; experiment: Protective effect on glutamate-induced cerebellar granule injury (MTT); type: cell-based, SD fetal rat; details: pre-incubated 2 h, glutamate 75 μM 24 h, concentration-dependent, **P<0.01 vs glutamate group, FIG. 7
Protocol: (§2) Primary cerebellar granule cells, extracted from 7-8 day, 15-20 g SD fetal rat, were seeded on a 96-well plate and inoculated in a 5% CO2 incubator at 37° C. for 8 days. On day 8, 90 μL of the compound (T-006) was added with different concentration gradients, then the cells were set to an incubator to cultivate for 2 hours. Then 10 μL of glutamate (final concentration of 75 μM) was added to each well except those of the control group. The cells were set to incubator to cultivate for 24 hours, and then MTT was added to each well. Four hours later, the absorbance value was measured at 570 nm using a microplate reader. […] Compared with the glutamate group, **P<0.01.

[10] = tested on: Primary cerebellar granule cells; experiment: Protective effect on MPP+-induced cerebellar granule injury (MTT); type: cell-based, SD fetal rat; details: pre-incubated 2 h, MPP+ 35 μM 24 h, concentration-dependent, **P<0.01 vs MPP+ group, FIG. 8
Protocol: as §2, with “days,” for “day,”, “MPP^+” for “glutamate”, “35” for “75”

Cortical neurons [11] = experiment: Protective effect on IAA-induced cortical neuronal injury (MTT); type: cell-based, SD fetal rat; details: FIG. 5
Protocol: Cortical neurons of E16-18 day SD fetal rat were seeded on a 96-well plate and inoculated in a 5% CO2 incubator at 37° C. for 8 days. On day 8, each of the compounds (T-006, TMP, Edaravone) was added with different concentration gradients, and 50 μl IAA (40 μM) was added to each well except those of the control group. Then the neurons were set to incubator to cultivate for 24 hours, and then MTT was added to each well. Four hours later, the absorbance was measured at 570 nm using a microplate reader. […] Compared with the IAA group, ****P<0.0001.

[12] = tested on: Scopolamine-induced memory impairment in mice; experiment: Scopolamine-induced memory impairment in mice, water maze test; type: in vivo, Kunming mice; details: for Improvement of scopolamine-induced memory impairment: water maze, **p<0.01 vs scopolamine model group, FIG. 10A, 10B
Protocol: In this example, Kunming mice were selected and divided into normal control group (Ctrl), Scopolamine group (Sco), Donepezil treatment group (Sco+3 mg/kg donepezil), 1 and 10 mg T-006 treatment group (Sco+1 mg/kg T-006 and Sco+10 mg/kg T-006). Intragastric administration was performed for two weeks, and after the final administration water maze test was conducted for 4 days. Thirty minutes before the test, abdominal injection of scopolamine (1 mg/kg) and model were performed. On day 5, space search test was conducted, and data were expressed as Mean±SD (n=9 per group).

[13] = comparison with TMP and Edaravone

With “NGF: positive control NGF, 50 ng/mL, in the PC12 differentiation test” the “Differentiation of PC12 cells into neurons, synapse formation and growth” value (PC12 cells [1]; serum-free F-12K + 50 ng/mL NGF, positive control) was “significantly promote differentiation of PC12 cells into neurons, synapse formation and growth”.
With `Cc1ccc(N(/N=C/c2nc(C)c(C)nc2C)C(=O)C(F)(F)F)c(C)c1` [T-006] the “Protective effect on t-BHP-induced cortical neuronal injury” value (Cortical neurons [2]; 24 h, MTT, ****P<0.0001 vs t-BHP group) was “significant protective effect”, the “Protective effect on t-BHP-induced cortical neuronal injury compared with TMP and Edaravone” value (Cortical neurons [2]; [13]) was “much stronger than that of the parent compound TMP and Edaravone” and the “t-BHP-induced mitochondrial membrane potential disorder in PC12 cells” value (PC12 cells [3]) was “improved t-BHP-induced mitochondrial membrane potential disorder”. For the same molecule, the “Elevation of ROS and RNS in t-BHP-induced PC12 cells” value (PC12 cells [4]) was “Reduced the Elevation of ROS and RNS”, the “Protective effect on IAA-induced PC12 cell injury” value (PC12 cells [5]; IAA 50 μM 2 h, then compound 24 h, MTT, ****P<0.0001 vs IAA group) was “significant protective effect” and the “Protective effect on IAA-induced PC12 cell injury compared with TMP and Edaravone” value (PC12 cells [5]; [13]) was “much stronger than that of the parent compound TMP and Edaravone”. The “t-BHP-induced PC12 cell apoptosis” value (PC12 cells [6]) was “reduced t-BHP-induced PC12 cell apoptosis”, the “Differentiation of PC12 cells into neurons, synapse formation and growth” value (PC12 cells [1]; serum-free F-12K, different concentrations, concentration-dependent) was “significantly promote differentiation of PC12 cells into neurons, synapse formation and growth” and the “MEF2 transcriptional activity in PC12 cells” value [7] was “significantly activates ME12 transcriptional activity”. The “Protective effect on t-BHP-induced PC12 cell injury compared with TMP or Edaravone” value (PC12 cells [8]; comparison with TMP or Edaravone) was “much stronger than that of the parent compound TMP or Edaravone”, the “Protective effect on t-BHP-induced PC12 cell injury” value (PC12 cells [8]; pre-incubated 2 h, t-BHP 100 μM 24 h, MTT, ****P<0.0001 vs t-BHP group) was “significant protective effect” and the “Protective effect on glutamate-induced primary cerebellar granule injury” value [9] was “significant protective effect”. For the same molecule, the “Protective effect on MPP+-induced primary cerebellar granule injury” value [10] was “significant protective effect”, the “Protective effect on IAA-induced cortical neuronal injury” value (Cortical neurons [11]; IAA 40 μM, 24 h, MTT, ****P<0.0001 vs IAA group) was “significant protective effect” and the “Protective effect on IAA-induced cortical neuronal injury compared with TMP and Edaravone” value (Cortical neurons [11]; [13]) was “much stronger than that of the parent compound TMP and Edaravone”. For the same molecule, the “Improvement of scopolamine-induced memory impairment” value ([12]; 1 mg/kg intragastric for two weeks) was “significantly improved the memory impairment induced by scopolamine”, the “Improvement of scopolamine-induced memory impairment compared with 3 mg/kg donepezil group” value ([12]; 10 mg/kg T-006 vs 3 mg/kg donepezil, $p<0.05) was “significantly better than 3 mg/kg donepezil group” and the “Improvement of scopolamine-induced memory impairment” value ([12]; 10 mg/kg intragastric for two weeks) was “significantly improved the memory impairment induced by scopolamine”.
For `COc1cc2c(cc1OC)C(=O)C(CC1CCN(Cc3ccccc3)CC1)C2` (centres unmarked) [donepezil, reference compound], the “Improvement of scopolamine-induced memory impairment” value ([12]; 3 mg/kg intragastric for two weeks) was “significantly improved the memory impairment induced by scopolamine”.
